The values that follow come from patent US8623860B2, “Azetidine derivatives, pharmaceutical compositions and uses thereof” (Boehringer Ingelheim International GmbH, priority 2011, dated 2014).

One may read the IC50 as the concentration that inhibits the measured activity by half. Read a low IC50 as greater potency in that assay.

Each structure is given as a SMILES string.

For this assay, the target named is human ACC2 (Homo sapiens (Human), UniProt O00763). Nature of the assay: ACC2 assay, spectrophotometric 384 well assay (NADH-linked, coupled lactate dehydrogenase/pyruvate kinase reaction). The settings on record: hACC2 construct lacking the 128 N-terminal amino acids; 25° C., 340 nm, 15 minutes. It is filed as biochemical. Here is the method: Spectrophotometric 384 Well Assay
human ACC2, sequence (O00763 129-2458): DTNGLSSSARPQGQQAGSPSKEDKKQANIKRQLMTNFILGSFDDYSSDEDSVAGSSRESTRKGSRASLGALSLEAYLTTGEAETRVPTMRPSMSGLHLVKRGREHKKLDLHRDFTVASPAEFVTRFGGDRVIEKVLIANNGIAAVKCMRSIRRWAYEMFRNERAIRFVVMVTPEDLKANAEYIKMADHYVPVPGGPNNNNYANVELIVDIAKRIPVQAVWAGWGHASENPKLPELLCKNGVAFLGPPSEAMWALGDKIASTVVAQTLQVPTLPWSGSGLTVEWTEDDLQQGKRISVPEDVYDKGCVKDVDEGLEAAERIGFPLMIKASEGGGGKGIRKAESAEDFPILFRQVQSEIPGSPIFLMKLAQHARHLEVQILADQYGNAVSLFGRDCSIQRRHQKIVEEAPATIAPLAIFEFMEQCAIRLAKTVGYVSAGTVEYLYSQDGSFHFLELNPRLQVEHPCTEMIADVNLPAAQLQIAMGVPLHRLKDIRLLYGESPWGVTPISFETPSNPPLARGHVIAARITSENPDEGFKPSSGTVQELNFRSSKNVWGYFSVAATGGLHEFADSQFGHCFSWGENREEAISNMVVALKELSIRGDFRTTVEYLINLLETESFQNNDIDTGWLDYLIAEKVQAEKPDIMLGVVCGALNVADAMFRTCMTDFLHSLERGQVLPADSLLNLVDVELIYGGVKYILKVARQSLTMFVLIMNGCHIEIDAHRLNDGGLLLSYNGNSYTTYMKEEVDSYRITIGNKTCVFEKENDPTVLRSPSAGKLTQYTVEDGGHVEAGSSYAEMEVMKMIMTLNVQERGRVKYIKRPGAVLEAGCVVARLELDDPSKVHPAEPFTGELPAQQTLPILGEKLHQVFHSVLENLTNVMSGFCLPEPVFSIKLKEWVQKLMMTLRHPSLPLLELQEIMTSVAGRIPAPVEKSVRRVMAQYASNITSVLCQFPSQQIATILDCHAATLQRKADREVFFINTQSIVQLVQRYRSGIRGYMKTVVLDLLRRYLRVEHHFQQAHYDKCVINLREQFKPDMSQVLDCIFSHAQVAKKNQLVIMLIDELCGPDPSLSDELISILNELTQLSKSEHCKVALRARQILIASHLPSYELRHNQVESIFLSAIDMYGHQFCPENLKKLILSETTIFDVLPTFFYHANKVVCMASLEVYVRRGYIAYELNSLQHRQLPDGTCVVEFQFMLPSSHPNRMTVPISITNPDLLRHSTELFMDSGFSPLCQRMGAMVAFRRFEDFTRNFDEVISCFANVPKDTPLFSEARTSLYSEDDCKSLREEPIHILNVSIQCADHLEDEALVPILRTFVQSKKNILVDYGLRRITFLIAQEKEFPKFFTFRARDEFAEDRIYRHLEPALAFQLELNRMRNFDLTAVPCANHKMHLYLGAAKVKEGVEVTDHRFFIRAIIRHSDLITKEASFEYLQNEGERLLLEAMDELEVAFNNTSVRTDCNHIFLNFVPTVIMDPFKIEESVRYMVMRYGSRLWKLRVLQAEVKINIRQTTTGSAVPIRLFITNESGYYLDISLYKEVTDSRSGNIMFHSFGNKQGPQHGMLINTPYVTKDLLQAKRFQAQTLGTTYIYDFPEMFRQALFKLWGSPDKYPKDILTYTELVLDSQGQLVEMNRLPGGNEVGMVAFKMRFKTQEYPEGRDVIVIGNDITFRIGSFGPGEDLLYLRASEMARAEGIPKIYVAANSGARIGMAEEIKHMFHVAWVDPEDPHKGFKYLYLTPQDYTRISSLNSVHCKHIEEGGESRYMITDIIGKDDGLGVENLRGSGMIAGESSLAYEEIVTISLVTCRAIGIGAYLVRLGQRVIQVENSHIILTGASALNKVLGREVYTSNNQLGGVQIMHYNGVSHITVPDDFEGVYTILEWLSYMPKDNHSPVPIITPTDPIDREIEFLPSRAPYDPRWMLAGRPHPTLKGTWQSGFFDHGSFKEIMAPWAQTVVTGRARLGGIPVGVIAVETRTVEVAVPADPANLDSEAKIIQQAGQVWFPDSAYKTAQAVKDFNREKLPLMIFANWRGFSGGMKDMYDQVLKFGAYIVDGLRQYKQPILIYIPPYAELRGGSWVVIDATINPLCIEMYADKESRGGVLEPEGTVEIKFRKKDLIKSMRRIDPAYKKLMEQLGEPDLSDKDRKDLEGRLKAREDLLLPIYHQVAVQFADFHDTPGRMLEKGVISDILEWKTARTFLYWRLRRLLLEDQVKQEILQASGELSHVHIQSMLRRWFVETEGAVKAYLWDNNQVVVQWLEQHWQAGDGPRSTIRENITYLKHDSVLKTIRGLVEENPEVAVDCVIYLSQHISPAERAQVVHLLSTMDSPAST
Malonyl CoA formation by acetyl CoA carboxylases is stoichometrically linked to the consumption of ATP. ACC2 activity is measured in a NADH-linked kinetic method measuring ADP generated during the ACC reaction using a coupled lactate dehydrogenase/pyruvate kinase reaction.
For biological testing, a human ACC2 construct which lacks the 128 amino acids at the N-terminus for increased solubility (nt 385-6966 in Genbank entry AJ575592) is cloned. The protein is then expressed in insect cells using a baculoviral expression system. Protein purification is performed by anion exchange.
All compounds are dissolved in dimethyl sulfoxide (DMSO) to a concentration of 10 mM.
Assay reactions are then carried out in 384-well plates, with hACC2 in an appropriate dilution and at final assay concentrations (f.c.) of 100 mM Tris (pH 7.5), 10 mM trisodium citrate, 25 mM KHCC3, 10 mM MgCl2, 0.5 mg/ml BSA, 3.75 mM reduced L-glutathione, 15 U/ml lactate dehydrogenase, 0.5 mM phosphoenolpyruvate, 15 U/ml pyruvate kinase, compounds at different concentrations at final DMSO concentrations of 1%.
The enzymatic reaction is then started by addition of a mixture of NADH, acetyl Coenzyme A (both 200 μM f.c.) and ATP (500 uM f.c.). The decrease of the optical density (slope S) is then determined at 25° C. at a wavelength of 340 nm over 15 minutes in a spectrophotometric reader.
Each assay microtiter plate contains wells with vehicle instead of compound as controls for the non-inhibited enzyme (100% CTL; ‘HIGH’) and wells without acetyl-CoA as controls for non-specific NADH degradation (0% CTL; ‘LOW’).
The slope S is used for calculation of % CTL=(S(compound)−S(‘LOW’))/(S(‘HIGH’)−S(‘LOW’))*100. Compounds will give values between 100% CTL (no inhibition) and 0% CTL (complete inhibition).
For IC50 value determination, the sample slope in the presence of the test compound after subtraction of the low controls (S(compound)−S(‘LOW’)) are used.
An IC50 value is derived from the compound slopes at different dosages after subtraction of the low controls (S(compound)−S(‘LOW’)) by non-linear regression curve fitting (equation y=(A+((B−A)/(1+((C/x)^D))))).
In the following table the activity expressed as IC50 (μM) of compounds according to the invention is presented wherein the IC50 values are determined in the ACC2 assay as described hereinbefore. The term “Ex.” refers to the example numbers according to the following experimental section.
`CCCOc1ccc(N2CC(c3ccc(CC(C)NC(C)=O)cc3)C2)cc1` (stereo not shown) [Example 1.01, N-(1-(4-(1-(4-Propoxyphenyl)azetidin-3-yl)phenyl)propan-2-yl)acetamide] came in with an IC50 of 510 nM.
With `CC(=O)NC(C)Cc1ccc(C2CN(c3ccc(OC4CCC4)cc3)C2)cc1` (stereo not shown) [Example 1.02] the figure was 260 nM; with `CC(=O)NC(C)Cc1ccc(C2CN(c3ccc(OC4CC4)cc3)C2)cc1` (stereo not shown) [Example 1.03], 340 nM; with `CC(=O)NC(C)Cc1ccc(C2CN(c3ccc(OCC4CC4)cc3)C2)cc1` (stereo not shown) [Example 1.04], 630 nM.
For `CCCOc1ccc(N2CC(c3ccc(CC(C)NC(C)=O)cc3)C2)cn1` (stereo not shown) [Example 1.05] the value was 900 nM.
Compound `CC(=O)NC(C)Cc1ccc(C2CN(c3cnc(OC4CCC4)nc3)C2)cc1` (stereo not shown) [Example 1.06] returned a half-maximal inhibitory concentration (IC50) of 3810 nM.
For `CC(=O)NC(C)Cc1ccc(C2CN(c3cnc(NC4CCC4)nc3)C2)cc1` (stereo not shown) [Example 1.07] the value was 5630 nM.
With `CCOc1ccc(N2CC(c3ccc(CC(C)NC(C)=O)cc3)C2)cc1` (stereo not shown) [Example 1.08] the figure was 650 nM; with `CC(=O)NC(C)Cc1ccc(C2CN(c3ccc(C(C)(C)C)cc3)C2)cc1` (stereo not shown) [Example 1.09], 2730 nM; with `CC(=O)NC(C)Cc1ccc(C2CN(c3ccc4ncccc4c3)C2)cc1` (stereo not shown) [Example 1.10], 8100 nM.
For `CCCOc1ccc(N2CC(c3ccc(CC(C)NC(C)=O)cc3)C2)c(OC)c1` (stereo not shown) [Example 1.11] the value was 600 nM.
`CCCOc1cc(N2CC(c3ccc(CC(C)NC(C)=O)cc3)C2)ccn1` (stereo not shown) [Example 1.12] showed an IC50 of 610 nM. The IC50 values of the last two compounds are within 1.5-fold of each other.
With `CC(=O)NC(C)Cc1ccc(C2CN(c3ccc4c(c3)OCCO4)C2)cc1` (stereo not shown) [Example 1.13] the figure was 950 nM; with `CC(=O)NC(C)CCc1ccc(C2CN(c3ccc4c(c3)OCCO4)C2)cc1` (stereo not shown) [Example 1.14], 670 nM; with `CC(=O)NC(C)CCc1ccc(C2CN(c3ccc(OC4CC4)cc3)C2)cc1` (stereo not shown) [Example 1.15], 480 nM.
For `CCOc1ccc(N2CC(c3ccc(CCC(C)NC(C)=O)cc3)C2)cc1` (stereo not shown) [Example 1.16] the value was 410 nM.
For `CC(=O)NC(C)CCc1ccc(C2CN(c3ccc(OCC4CC4)cc3)C2)cc1` (stereo not shown) [Example 1.17] the value was 190 nM; for `CC(=O)NC(C)CCc1ccc(C2CN(c3cccc(OC(C)C)c3)C2)cc1` (stereo not shown) [Example 1.18], 3180 nM; for `CCOc1ccc(N2CC(c3ccc(C(C)NC(C)=O)cc3)C2)cc1` (stereo not shown) [Example 1.19], 1130 nM.
`CC(=O)NC(C)c1ccc(C2CN(c3ccc4c(c3)OCCO4)C2)cc1` (stereo not shown) [Example 1.20] registered a half-maximal inhibitory concentration (IC50) of 490 nM.
With `CC(=O)NC(C)c1ccc(C2CN(c3ccc(OC4CCCC4)cc3)C2)cc1` (stereo not shown) [Example 1.21] the figure was 340 nM; with `CCC(C)Nc1ncc(N2CC(c3ccc(C(C)NC(C)=O)cc3)C2)cn1` (stereo not shown) [Example 1.22], 2080 nM.
With `CC(=O)N[C@@H](C)c1ccc(C2CN(c3ccc(OCC4CC4)cc3)C2)cc1` [Example 1.23] the figure was 380 nM.
For `CC(=O)N[C@@H](C)c1ccc(C2CN(c3ccc(OC4CCC4)cc3)C2)cc1` [Example 1.24] the value was 1630 nM.
The compound `CC(=O)N[C@@H](C)c1ccc(C2CN(c3ccc(OC4CC4)cc3)C2)cc1` [Example 1.25] had an IC50 of 540 nM.
`CCCOc1ccc(N2CC(c3ccc([C@H](C)NC(C)=O)cc3)C2)cc1` [Example 1.26]: the IC50 is 510 nM. This IC50 and that of the compound before are within 1.5-fold of each other.
As to `CC(=O)N[C@@H](C)c1ccc(C2CN(c3ccc4c(c3)OCCO4)C2)cc1` [Example 1.27], the midpoint of inhibition, the IC50, lay at 170 nM.
With `CCOc1cccc(N2CC(c3ccc([C@H](C)NC(C)=O)cc3)C2)c1` [Example 1.28] the figure was 680 nM.
For `CC(=O)N[C@@H](C)c1ccc(C2CN(c3ccc4c(c3)OCCCO4)C2)cc1` [Example 1.29] the value was 780 nM; for `CC(=O)NC(C)Cc1ccc(C2CN(c3ncc(OCC4CC4(F)F)cc3F)C2)cc1` (stereo not shown) [Example 1.30], 740 nM.
For `CC(=O)N[C@@H](C)c1ccc(C2CN(c3ccc(OCC4CC4(F)F)cn3)C2)cc1` (stereo partly shown) [Example 1.31] the value was 600 nM; for `CC(=O)N[C@@H](C)c1ccc(C2CN(c3ccnc(N4CCOCC4)n3)C2)cc1` [Example 1.32], 9040 nM; for `CC(=O)N[C@@H](C)c1ccc(C2CN(c3ncc(OCC4CC4(F)F)cn3)C2)cc1` (stereo partly shown) [Example 1.33], 180 nM.
On to `CC(=O)N[C@@H](C)c1ccc(C2CN(c3ccc(OCCCF)cn3)C2)cc1` [Example 1.34], for which half-maximal inhibition (IC50) was put at 830 nM.
Compound `CC(=O)N[C@@H](C)c1ccc(C2CN(c3ncc(OCC4CC4(F)F)cc3F)C2)cc1` (stereo partly shown) [Example 1.35] showed an IC50 of 180 nM.
For `CC(=O)NC(C)Cc1ccc(C2CN(c3ncc(Br)cn3)C2)cc1` (stereo not shown) [Example 2.01, N-(1-(4-(1-(5-bromopyrimidin-2-yl)azetidin-3-yl)phenyl)propan-2-yl)acetamide], the half-inhibitory concentration (IC50) is 8560 nM.
For `CCCc1cnc(N2CC(c3ccc(CC(C)NC(C)=O)cc3)C2)nc1` (stereo not shown) [Example 2.02] the value was 3790 nM; for `CC(=O)NC(C)Cc1ccc(C2CN(c3ccc(-c4ccc(Cl)cc4)nn3)C2)cc1` (stereo not shown) [Example 2.03], 7020 nM.
In turn, `CC(=O)NC(C)CCc1ccc(C2CN(c3ncc(C4CC4)cn3)C2)cc1` (stereo not shown) [Example 2.04] registered an IC50 of 2560 nM.
For `CC(=O)NC(C)CCc1ccc(C2CN(c3ncc4nc(-c5ccccc5)oc4n3)C2)cc1` (stereo not shown) [Example 2.05] the value was 810 nM.
For `CC(=O)NC(C)CCc1ccc(C2CN(c3cccc(C(F)(F)F)n3)C2)cc1` (stereo not shown) [Example 2.06] the value was 1420 nM; for `CC(=O)N[C@@H](C)c1ccc(C2CN(c3ncc4nc(-c5ccccc5)oc4n3)C2)cc1` [Example 2.07], 340 nM; for `COc1ccc(-c2cnc(N3CC(c4ccc([C@H](C)NC(C)=O)cc4)C3)nc2)cc1` [Example 2.08], 320 nM.
For `CC(=O)N[C@@H](C)c1ccc(C2CN(c3ccc(C(F)(F)F)cn3)C2)cc1` [Example 2.09] the value was 450 nM.
As for `CC(=O)N[C@@H](C)c1ccc(C2CN(c3cccc(C(F)(F)F)n3)C2)cc1` [Example 2.10], half-maximal inhibition (IC50) was put at 470 nM.
With `CC(=O)N[C@@H](C)c1ccc(C2CN(c3nnc(-c4ccccc4)s3)C2)cc1` [Example 2.11] the figure was 7760 nM; with `CC(=O)N[C@@H](C)c1ccc(C2CN(c3ncc(C4CC4)cn3)C2)cc1` [Example 2.12], 420 nM; with `CC(=O)N[C@@H](C)c1ccc(C2CN(c3ncc4nc(-c5ccsc5)oc4n3)C2)cc1` [Example 2.13], 690 nM.
`CC(=O)N[C@@H](C)c1ccc(C2CN(c3ncc(C(F)(F)F)cn3)C2)cc1` [Example 2.15] gave a 50% inhibitory concentration (IC50) of 850 nM.
With `Cc1oncc1C(=O)N[C@@H](C)c1ccc(C2CN(c3ccc(OCC4CC4)cc3)C2)cc1` [Example 3.01, (S)—N-(1-(4-(1-(4-(cyclopropylmethoxy)phenyl)azetidin-3-yl)phenyl)ethyl)-5-methylisoxazole-4-carboxamide] the figure was 330 nM; with `C[C@H](NC(=O)c1cn[nH]c1)c1ccc(C2CN(c3ccc(OCC4CC4)cc3)C2)cc1` [Example 3.02], 1060 nM; with `C[C@H](NC(=O)C1CC=CC1)c1ccc(C2CN(c3ccc(OCC4CC4)cc3)C2)cc1` [Example 3.03], 380 nM.
